Experimental data taken from patent publication US20160002204A1 (Board of Regents, The University of Texas System, priority 2014, published 2016).

Assays:
[1] = target: T1, GLS1 (purified recombinant human GAC) (Homo sapiens, UniProt O94925); experiment: GLS1 enzymatic activity assay (dual-coupled, Amplex UltraRed/resorufin); format: biochemical
T1 sequence (O94925 55-598 isoform O94925-3 limits assumed): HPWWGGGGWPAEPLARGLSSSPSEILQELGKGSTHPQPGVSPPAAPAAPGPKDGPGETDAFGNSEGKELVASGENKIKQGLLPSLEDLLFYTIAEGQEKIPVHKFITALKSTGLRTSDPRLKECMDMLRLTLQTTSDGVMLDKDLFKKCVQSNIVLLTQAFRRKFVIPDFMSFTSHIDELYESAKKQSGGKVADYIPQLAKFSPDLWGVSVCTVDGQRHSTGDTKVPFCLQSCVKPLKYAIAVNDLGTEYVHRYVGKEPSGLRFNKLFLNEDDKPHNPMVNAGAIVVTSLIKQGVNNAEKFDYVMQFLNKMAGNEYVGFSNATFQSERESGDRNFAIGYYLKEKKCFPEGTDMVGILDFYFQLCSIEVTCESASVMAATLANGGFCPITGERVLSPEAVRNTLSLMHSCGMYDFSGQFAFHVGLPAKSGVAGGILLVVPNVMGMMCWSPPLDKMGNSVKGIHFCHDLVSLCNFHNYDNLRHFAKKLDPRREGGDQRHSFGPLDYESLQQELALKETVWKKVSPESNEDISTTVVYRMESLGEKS
Description: GLS1 Enzymatic Activity Assay
The inhibition of purified recombinant human GAC by varying concentrations of inhibitors is assessed via a dual-coupled enzymatic assay. The glutamate produced by the glutaminase reaction is used by glutamate oxidase to produce α-ketoglutarate, ammonia, and hydrogen peroxide, with this hydrogen peroxide subsequently being used by horseradish peroxidase to produce resorufin in the presence of Amplex UltraRed. The assay buffer consisted of 50 mM Hepes (pH 7.4), 0.25 mM EDTA and 0.1 mM Triton X-100. GAC was incubated with potassium phosphate (10 minutes at room temperature) prior to incubation with inhibitor (10 minutes at room temperature). The final reaction conditions were as follows: 2 nM GAC, 50 mM potassium phosphate, 100 mU/mL glutamate oxidase (Sigma), 1 mM glutamine (Sigma), 100 mU/mL horseradish peroxidase (Sigma), 75 μM Amplex UltraRed (Life Technologies), and 1% (v/v) DMSO. The production of resorufin was monitored on a Perkin Elmer Envision plate reader (excitation 530 nm, emission 590 nm) either in a kinetics or endpoint mode (at 20 minutes). IC50 values were calculated using a four-parameter logistic curve fit.

A549 cells = experiment: A549 proliferation (viability) assay, Cell Titer Fluor, 72 hours; format: cell-based; settings: Homo sapiens
Description: A549 cells were routinely maintained in RPMI 1640 media (Gibco catalog number 11875-093) supplemented with 10% dialyzed fetal bovine serum using a humidified incubator (37° C., 5% CO2 and ambient O2). In preparation for the viability assay, cells were inoculated into 384-well black CulturPlates (Perkin Elmer) at a density of 1000 cells/well in a volume of 40 uL. Following a 24-hour incubation at 37° C., 5% CO2 and ambient O2, cells were treated with compound (10 uL) in a final DMSO concentration of 0.5% (v/v). The microplates were then incubated for 72 hours (37° C., 5% CO2 and ambient O2). Cell Titer Fluor (Promega) was subsequently added (10 uL of 6× reagent) and mixed for 15 minutes at room temperature. The plates were then incubated for 30 minutes (37° C., 5% CO2 and ambient O2) and fluorescence was subsequently read on the Perkin Elmer Envision plate reader. EC50 values were calculated using a four-parameter logistic curve fit.

| SMILES | IC50 [1] | EC50 (A549 cells) |
| --- | --- | --- |
| O=C(Nc1ccn(CCC(F)Cn2cc(C(=O)NCc3cc(OC(F)(F)F)ccc3F)nn2)c(=O)c1F)C(=O)N1CCC[C@H](C(F)(F)F)C1 (mixture of isomers) [Example 435] | < 100 nM | < 100 nM |
| CC(=O)OC(C(=O)Nc1ccn(CC[C@@H](F)Cn2cc(C(=O)NCc3cccc(OC(F)(F)F)c3)nn2)c(=O)c1F)c1ccccc1 (stereo in doubt) [Example 306, (R)-[(3-fluoro-1-{3-fluoro-4-[4-({[3-(trifluoromethoxy)phenyl]methyl}carbamoyl)-1H-1,2,3-triazol-1-yl]butyl}-2-oxo-1,2-dihydropyridin-4-yl)carbamoyl](phenyl)methyl acetate] | < 100 nM | < 100 nM |
| O=C(Cc1ccccc1)Nc1ccn(CCCCc2nnc(NC(=O)Cc3ccccn3)s2)c(=O)c1 [Example 1, N-(2-oxo-1-(4-(5-(2-(pyridin-2-yl)acetamido)-1,3,4-thiadiazol-2-yl)butyl)-1,2-dihydropyridin-4-yl)-2-phenylacetamide] | < 100 nM | 500 to 5000 nM |
| O=C(Cc1ccccc1)Nc1ccn(CCCCn2cc(C(=O)NCc3ccccc3)nn2)c(=O)c1 [Example 2, N-benzyl-1-(4-(2-oxo-4-(2-phenylacetamido)pyridin-1(2H)-yl)butyl)-1H-1,2,3-triazole-4-carboxamide] | 100 to 500 nM | 500 to 5000 nM |
| CC(C)(C)OC(=O)Nc1ccn(CCCCn2cc(C(=O)NCc3cccc(OC(F)(F)F)c3)nn2)c(=O)c1 [Example 3, Tert-butyl(2-oxo-1-(4-(4-((3-(trifluoromethoxy)benzyl)carbamoyl)-1H-1,2,3-triazol-1-yl)butyl)-1,2-dihydropyridin-4-yl)carbamate] | < 100 nM | 100 to 500 nM |
| Nc1ccn(CCCCn2cc(C(=O)NCc3cccc(OC(F)(F)F)c3)nn2)c(=O)c1 [Example 4, 1-(4-(4-Amino-2-oxopyridin-1(2H)-yl)butyl)-N-(3-(trifluoromethoxy)benzyl)-1H-1,2,3-triazole-4-carboxamide] | 500 to 5000 nM | > 5000 nM |
| CC(C)CC(=O)Nc1ccn(CCCCn2cc(C(=O)NCc3cccc(OC(F)(F)F)c3)nn2)c(=O)c1 [Example 5, 1-(4-(4-(3-methylbutanamido)-2-oxopyridin-1(2H)-yl)butyl)-N-(3-(trifluoromethoxy)benzyl)-1H-1,2,3-triazole-4-carboxamide] | < 100 nM | 100 to 500 nM |
| O=C(Cc1ccccn1)Nc1ccn(CCCCn2cc(C(=O)NCc3cccc(OC(F)(F)F)c3)nn2)c(=O)c1 [Example 6, 1-(4-(2-oxo-4-(2-(pyridin-2-yl)acetamido)pyridin-1 (2H)-yl)butyl)-N-(3-(trifluoromethoxy)benzyl)-1H-1,2,3-triazole-4-carboxamide] | < 100 nM | 500 to 5000 nM |
| CC(C)COC(=O)Nc1ccn(CCCCn2cc(C(=O)NCc3cccc(OC(F)(F)F)c3)nn2)c(=O)c1 [Example 7, Isobutyl(2-oxo-1-(4-(4-((3-(trifluoromethoxy)benzyl)carbamoyl)-1H-1,2,3-triazol-1-yl)butyl)-1,2-dihydropyridin-4-yl)carbamate] | < 100 nM | 100 to 500 nM |
| O=C(NCc1ccccc1)c1ccn(CCCCn2cc(C(=O)NCc3cccc(OC(F)(F)F)c3)nn2)c(=O)c1 [Example 8, N-Benzyl-2-oxo-1-(4-(4-((3-(trifluoromethoxy)benzyl)carbamoyl)-1H-1,2,3-triazol-1-yl)butyl)-1,2-dihydropyridine-4-carboxamide] | < 100 nM | 100 to 500 nM |
| O=C(Cc1cccc(OC(F)(F)F)c1)Nc1ccn(CCCCn2cc(C(=O)NCc3ccccn3)nn2)c(=O)c1 [Example 10, 1-(4-(2-oxo-4-(2-(3-(trifluoromethoxy)phenyl)acetamido)pyridin-1(2H)-yl)butyl)-N-(pyridin-2-ylmethyl)-1H-1,2,3-triazole-4-carboxamide] | < 100 nM | 500 to 5000 nM |
| Cc1ccn(CCCCn2cc(C(=O)NCc3cccc(OC(F)(F)F)c3)nn2)c(=O)c1 [Example 11, 1-(4-(4-methyl-2-oxopyridin-1(2H)-yl)butyl)-N-(3-(trifluoromethoxy)benzyl)-1H-1,2,3-triazole-4-carboxamide] | 500 to 5000 nM | > 5000 nM |
| O=C(Cc1ccccc1)Nc1ccn(CCC(F)Cn2cc(C(=O)NCc3cc(OC(F)(F)F)ccc3F)nn2)c(=O)c1 (centres unmarked) [Example 12, 1-(2-fluoro-4-(2-oxo-4-(2-phenylacetamido)pyridin-1(2H)-yl)butyl)-N-(2-fluoro-5-(trifluoromethoxy)benzyl)-1H-1,2,3-triazole-4-carboxamide] | < 100 nM | < 100 nM |
| O=C(Cc1ccccc1)Nc1ccn(CC(F)CCn2cc(C(=O)NCc3cc(OC(F)(F)F)ccc3F)nn2)c(=O)c1 (centres unmarked) [Example 13, 1-(3-fluoro-4-(2-oxo-4-(2-phenylacetamido)pyridin-1(2H)-yl)butyl)-N-(2-fluoro-5-(trifluoromethoxy)benzyl)-1H-1,2,3-triazole-4-carboxamide] | < 100 nM | < 100 nM |
| O=C(Cc1ccccc1)Nc1ccn(CCCCc2ccc(NC(=O)Cc3cccc(OC(F)(F)F)c3)nn2)c(=O)c1 [Example 14, N-(2-oxo-1-(4-(6-(2-(3-(trifluoromethoxy)phenyl)acetamido)pyridazin-3-yl)butyl)-1,2-dihydropyridin-4-yl)-2-phenylacetamide] | < 100 nM | < 100 nM |
| O=C(Cc1ccccc1)Nc1ccn(CCCCn2ccc(NC(=O)Cc3ccccc3)nc2=O)c(=O)n1 [Example 15, N,N′-(butane-1,4-diylbis(2-oxo-1,2-dihydropyrimidine-1,4-diyl))bis(2-phenylacetamide)] | < 100 nM | > 5000 nM |
| O=C(Cc1ccccc1)Nc1ccn(CCCCc2nnc(NC(=O)Cc3cccnc3)s2)c(=O)n1 [Example 16, N-(2-oxo-1-(4-(5-(2-(pyridin-3-yl)acetamido)-1,3,4-thiadiazol-2-yl)butyl)-1,2-dihydropyrimidin-4-yl)-2-phenylacetamide] | < 100 nM | 500 to 5000 nM |
| O=C(Cc1ccccn1)Nc1ccn(CCCCc2nnc(C(=O)NCc3ccccn3)s2)c(=O)c1 [Example 448, 5-(4-{2-oxo-4-[2-(pyridin-2-yl)acetamido]-1,2-dihydropyridin-1-yl}butyl)-N-(pyridin-2-ylmethyl)-1,3,4-thiadiazole-2-carboxamide] | 500 to 5000 nM |  |
| COCCNC(=O)c1nnc(CCCCn2ccc(NC(=O)Cc3ccccc3)cc2=O)s1 [Example 449, N-(2-methoxyethyl)-5-{4-[2-oxo-4-(2-phenylacetamido)-1,2-dihydropyridin-1-yl]butyl}-1,3,4-thiadiazole-2-carboxamide] | 500 to 5000 nM |  |
| COCCNC(=O)c1nnc(CCCCn2ccc(NC(=O)Cc3ccccn3)cc2=O)s1 [Example 452, N-(2-methoxyethyl)-5-(4-{2-oxo-4-[2-(pyridin-2-yl)acetamido]-1,2-dihydropyridin-1-yl]butyl)-1,3,4-thiadiazole-2-carboxamide] | 500 to 5000 nM |  |
| O=C(Cc1ccccn1)Nc1ccn(CCCCc2nnc(C(=O)NCc3ncccc3F)s2)c(=O)c1 [Example 457, N-[(3-fluoropyridin-2-yl)methyl]-5-(4-{2-oxo-4-[2-(pyridin-2-yl)acetamido]-1,2-dihydropyridin-1-yl}butyl)-1,3,4-thiadiazole-2-carboxamide] | 500 to 5000 nM |  |
